Test results as given in patent publication US20240239829A1 (priority 2021, published 2024).
Like-named read-outs stand apart in the source and are kept apart here.

How the values were obtained:
[1] = system: A/PR/8/34(H1N1) influenza virus; set-up: species or system C57BL/6J mice; details: mouse, in vivo
[2] = system: A/H3N2/Hong Kong/1/68 influenza virus; set-up: species or system C57BL/6J mice; details: mouse, in vivo
[3] = for stability: compound alone, 5 mg/ml, 37° C., SGF pH 1.0, PBS pH 4.5, SIF pH 7.3, 0.5-6 hours
respiratory infection = experiment: Prevention of respiratory infections of weaning piglets; format: in vivo
Description: The sick rate was about 10% and the death rate was about 5%. […] Control feed comprised 500 grams of Tilmicosin per 1000 kg. The nursery feeds were given to 763 of weaning piglets and 750 of controls from day 15 of the weaning period.

[4] = system: human lung epithelium cell line A549; experiment: Antibody binding to healthy or damaged A549 cells; format: cell-based
human fetal tissues = experiment: Antibody binding to human fetal tissues (tissue array slides); details: lung, heart, kidney, brain, pancreas, liver, thymus and testicle
Description: (§1) Further, the Regn10987 antibody from COVID-19 infected patient and fetal tissues or multiple diseased tissues of tissue array slides (purchased from US Biomax) were used to evaluate the pathogenicity of the antibody specific to the SARS-CoV-2 S1 protein. […] In addition, the Regn10987 bound broadly to the human inflammatory tissues or cancer tissues of respiratory, cardiovesvular, urinary and digestive system (FIGS. 17A and 17B). The human inflammatory diseases tested include pneumonia, bronchitis, bronchiectasis, valvular disease, rheumatoid valvular disease, myocarditis, esophagitis, gastritis, collitis, appendicitis, pancreatitis, and hepatitis. The cancer tissues tested include small cell lung carcinoma, kidney clear cell carcinoma, and myxoma.

[5] = system: human inflammatory tissues or cancer tissues; experiment: Antibody binding to human diseased tissues (tissue array slides); details: respiratory, cardiovascular, urinary and digestive system
Description: as §1

[6] = system: fetus and newborn mouse pups of timed-pregnant mice

CCOC(=O)C1=C[C@@H](OC(CC)CC)[C@H](NC(C)=O)[C@@H](N)C1 [Tamiflu]
body weight [1]: maintained better body weight | deaths (survival rate) [1]: significantly reduced the deaths | inflammation of lung and intestine (HE stained tissue sections) [1]: Severe inflammation | lung cytokine level of IL-1β [1]: remained abnormally higher | lung cytokine level of IL-6 [1]: remained abnormally higher | lung cytokine level of TNF-α [1]: remained abnormally higher | serum cytokine level of IL-6 [1]: significantly reduced | serum cytokine level of TNF-α [1]: significantly reduced | deaths (survival rate) ([1]; listed as Tamilu): did not show significant effect | therapeutic efficacy compared to vehicle controls [2]: did not show significant efficacy

COC(=O)[C@]1(O)CC(O)[C@@H](NC(C)=O)C(C(O)[C@H](O)CO)O1 (some centres unmarked) [NANA-Me, N-acetylneuraminic acid methyl ester]
deaths (survival rate) ([1]; pH 1.5): ineffective | deaths (survival rate) ([1]; pH 3.5): ineffective | deaths (survival rate) ([1]; pH 4.5): significantly reduced deaths | deaths (survival rate) ([1]; pH 7): ineffective | stability [3]: most stable at about pH 4.5 and least stable at about pH 7.3 | NANA-Me stability by ratio NANA:NANA-Me ([3]; pH 7.4): most stable at NANA:NANA-Me of 1:4 and least stable at NANA:NANA-Me of 1:1

CC(=O)N[C@H]1[C@H]([C@H](O)[C@H](O)CO)OC(O)(C(=O)O)C[C@@H]1O (some centres unmarked) [NANA, N-acetylneuraminic acid]
stability [3]: stable at all the pH conditions

CC[C@H]1OC(=O)C[C@@H](O)[C@H](C)[C@@H](O[C@@H]2O[C@H](C)[C@@H](O)[C@H](N(C)C)[C@H]2O)[C@@H](CCN2C[C@H](C)C[C@H](C)C2)C[C@@H](C)C(=O)/C=C/C(C)=C/[C@@H]1CO[C@@H]1O[C@H](C)[C@@H](O)[C@@H](OC)[C@H]1OC [Tilmicosin]
Odds Ratio (respiratory infection; death): 5.76 | Death (respiratory infection; number of piglets, nursery feed for 4 days from day 15 of weaning): 38

MAb-Regn10987: naturally occurred human monoclonal antibody specific to the COVID-19 (SARS-CoV-2) S1 protein
binding to damaged A549 cells ([4]; A549 cells with missed sialic acid on the cell surface): strongly bound | binding to healthy A549 cells ([4]; healthy (intact) A549 cells): weakly bound | binding to human fetal tissues (human fetal tissues): bound | binding to human inflammatory tissues or cancer tissues [5]: bound broadly | histological changes of lungs of mouse pups (HE) ([6]; mouse, in vivo): Acute lung inflammation and injury | histology of the brains of mouse pups (HE) ([6]; mouse, in vivo): Large amount of inflammatory cells infiltration | Death (%) ([6]; mouse, in vivo, ip): 44.8% | Sick (%) ([6]; mouse, in vivo, ip): 17.1% | Sick + Death (%) ([6]; mouse, in vivo, ip): 61.9% | Odds Ratio ([6]; sick and death of mouse pups, vs saline): 21.3
